Measured values as given in patent US10004701B2, “Methods and compositions for treating infection” (UNIVERSITY OF ROCHESTER, priority 2012, dated 2018).
Where a name gives a salt, the structure may show the parent alone. Read-outs that look alike come from different tables or passages of the source.

Columns and labels:
Experiment in all cases: AK assay 384-well format, Prestwick library screening
E. faecium = assay type: cell-based, Enterococcus faecium; conditions: 50 μM final drug concentration; for fold induction at 50 µM: Enterococcus faecium, 3 h
[1] = test system: S. aureus strain USA300-0114; assay type: cell-based, Staphylococcus aureus; conditions: 50 μM final drug concentration; for fold induction at 50 µM: Staphylococcus aureus, USA300, 3 h
K. pneumoniae = assay type: cell-based, Klebsiella pneumoniae; conditions: 50 μM final drug concentration; for fold induction at 50 µM: Klebsiella pneumoniae, 3 h
[2] = test system: A. baumannii strain 98-37-09; assay type: cell-based, Acinetobacter baumannii; conditions: 50 μM final drug concentration; for fold induction at 50 µM: Acinetobacter baumannii, 983709, 3 h
P. aeruginosa = assay type: cell-based, Pseudomonas aeruginosa; conditions: 50 μM final drug concentration; for fold induction at 50 µM: Pseudomonas aeruginosa, 3 h
E. cloacae = assay type: cell-based, Enterobacter cloacae; conditions: 50 μM final drug concentration; for fold induction at 50 µM: Enterobacter cloacae, 3 h
E. coli = assay type: cell-based, Escherichia coli; conditions: 50 μM final drug concentration; for fold induction at 50 µM: Escherichia coli, 3 h
[3] = planktonic, cutoff for positive-scoring molecules 3-fold increase
[4] = 384-well format, cutoff for positive-scoring molecules 3-fold increase, read-out: AK-based Prestwick Library Screening Results, E. faecium (increase in extracellular AK activity)
[5] = 384-well format, cutoff for positive-scoring molecules 3-fold increase, read-out: AK-based Prestwick Library Screening Results, S. aureus (increase in extracellular AK activity)
[6] = 384-well format, cutoff for positive-scoring molecules 3-fold increase, read-out: AK-based Prestwick Library Screening Results, K. pneumoniae (increase in extracellular AK activity)
[7] = 384-well format, cutoff for positive-scoring molecules 3-fold increase, read-out: AK-based Prestwick Library Screening Results, A. baumannii (increase in extracellular AK activity)
[8] = 384-well format, cutoff for positive-scoring molecules 3-fold increase, read-out: AK-based Prestwick Library Screening Results, P. aeruginosa (increase in extracellular AK activity)
[9] = 384-well format, cutoff for positive-scoring molecules 3-fold increase, read-out: AK-based Prestwick Library Screening Results, E. cloacae (increase in extracellular AK activity)
[10] = 384-well format, cutoff for positive-scoring molecules 3-fold increase, read-out: AK-based Prestwick Library Screening Results, E. coli (increase in extracellular AK activity)

CN1CCC2=C[C@H](O)[C@H]3OC(=O)c4cc5c(cc4[C@H]3[C@@H]21)OCO5 [Hippeastrine hydrobromide]
AK-based Prestwick Library Screening Results, E. faecium (fold increase in extracellular AK activity) (E. faecium; [3]): 0.9 | AK-based Prestwick Library Screening Results, S. aureus (fold increase in extracellular AK activity) [1, 3]: 0.7 | AK-based Prestwick Library Screening Results, K. pneumoniae (fold increase in extracellular AK activity) (K. pneumoniae; [3]): 0.6 | AK-based Prestwick Library Screening Results, A. baumannii (fold increase in extracellular AK activity) [2, 3]: 0.8 | AK-based Prestwick Library Screening Results, P. aeruginosa (fold increase in extracellular AK activity) (P. aeruginosa; [3]): 0.9 | AK-based Prestwick Library Screening Results, E. cloacae (fold increase in extracellular AK activity) (E. cloacae; [3]): 1.4 | AK-based Prestwick Library Screening Results, E. coli (fold increase in extracellular AK activity) (E. coli; [3]): 0.9

CN1CCCN(C(c2ccccc2)c2ccc(Cl)cc2)CC1 (stereo not drawn) [Homochlorcyclizine dihydrochloride]
fold induction at 50 µM (E. faecium; planktonic E. faecium, 384-well, […], read-out: AK-based Prestwick Library Screening Results: E. faecium (increase in extracellular AK activity)): 1.2 | fold induction at 50 µM ([1]; planktonic S. aureus, 384-well, […], read-out: AK-based Prestwick Library Screening Results: S. aureus (increase in extracellular AK activity)): 1 | fold induction at 50 µM (K. pneumoniae; planktonic K. pneumoniae, 384-well, […], read-out: AK-based Prestwick Library Screening Results: K. pneumoniae (increase in extracellular AK activity)): 1.1 | fold induction at 50 µM ([2]; planktonic A. baumannii, 384-well, […], read-out: AK-based Prestwick Library Screening Results: A. baumannii (increase in extracellular AK activity)): 1.2 | fold induction at 50 µM (P. aeruginosa; planktonic P. aeruginosa, 384-well, […], read-out: AK-based Prestwick Library Screening Results: P. aeruginosa (increase in extracellular AK activity)): 1.2 | fold induction at 50 µM (E. cloacae; planktonic E. cloacae, 384-well, […], read-out: AK-based Prestwick Library Screening Results: E. cloacae (increase in extracellular AK activity)): 1.8 | fold induction at 50 µM (E. coli; planktonic E. coli, 384-well, […], read-out: AK-based Prestwick Library Screening Results: E. coli (increase in extracellular AK activity)): 1.5

CC1CC(OC(=O)c2ccccc2O)CC(C)(C)C1 (stereo not drawn) [Homosalate]
fold induction at 50 µM (E. faecium; planktonic E. faecium, positive cutoff 3-fold increase, read-out: AK-based Prestwick library screening result, E. faecium (fold increase in extracellular AK activity)): 1.1 | fold induction at 50 µM ([1]; planktonic S. aureus, positive cutoff 3-fold increase, read-out: AK-based Prestwick library screening result, S. aureus (fold increase in extracellular AK activity)): 1.2 | fold induction at 50 µM (K. pneumoniae; planktonic K. pneumoniae, positive cutoff 3-fold increase, read-out: AK-based Prestwick library screening result, K. pneumoniae (fold increase in extracellular AK activity)): 1.1 | fold induction at 50 µM ([2]; planktonic A. baumannii, positive cutoff 3-fold increase, read-out: AK-based Prestwick library screening result, A. baumannii (fold increase in extracellular AK activity)): 1.8 | fold induction at 50 µM (P. aeruginosa; planktonic P. aeruginosa, positive cutoff 3-fold increase, read-out: AK-based Prestwick library screening result, P. aeruginosa (fold increase in extracellular AK activity)): 1.1 | fold induction at 50 µM (E. cloacae; planktonic E. cloacae, positive cutoff 3-fold increase, read-out: AK-based Prestwick library screening result, E. cloacae (fold increase in extracellular AK activity)): 1.5 | fold induction at 50 µM (E. coli; planktonic E. coli, positive cutoff 3-fold increase, read-out: AK-based Prestwick library screening result, E. coli (fold increase in extracellular AK activity)): 1.3

CCN(CC)CCNc1ccc(CO)c2sc3ccccc3c(=O)c12 [Hycanthone]
fold induction at 50 µM (E. faecium; planktonic E. faecium, cutoff for positive-scoring molecules 3-fold increase, read-out: AK-based Prestwick Library Screening Results, E. faecium (increase in extracellular AK activity)): 1.2 | fold induction at 50 µM ([1]; planktonic S. aureus, cutoff for positive-scoring molecules 3-fold increase, read-out: AK-based Prestwick Library Screening Results, S. aureus (increase in extracellular AK activity)): 0.8 | fold induction at 50 µM (K. pneumoniae; planktonic K. pneumoniae, cutoff for positive-scoring molecules 3-fold increase, read-out: AK-based Prestwick Library Screening Results, K. pneumoniae (increase in extracellular AK activity)): 0.7 | fold induction at 50 µM ([2]; planktonic A. baumannii, cutoff for positive-scoring molecules 3-fold increase, read-out: AK-based Prestwick Library Screening Results, A. baumannii (increase in extracellular AK activity)): 0.8 | fold induction at 50 µM (P. aeruginosa; planktonic P. aeruginosa, cutoff for positive-scoring molecules 3-fold increase, read-out: AK-based Prestwick Library Screening Results, P. aeruginosa (increase in extracellular AK activity)): 0.8 | fold induction at 50 µM (E. cloacae; planktonic E. cloacae, cutoff for positive-scoring molecules 3-fold increase, read-out: AK-based Prestwick Library Screening Results, E. cloacae (increase in extracellular AK activity)): 1.1 | fold induction at 50 µM (E. coli; planktonic E. coli, cutoff for positive-scoring molecules 3-fold increase, read-out: AK-based Prestwick Library Screening Results, E. coli (increase in extracellular AK activity)): 0.9

COc1ccc2c(c1OC)C(=O)O[C@@H]2[C@H]1c2cc3c(cc2CCN1C)OCO3 [Hydrastine hydrochloride]
fold induction at 50 µM (E. faecium; planktonic E. faecium, […], read-out: AK-based Prestwick Library Screening Results, E. faecium (increase in extracellular AK activity)): 1 | fold induction at 50 µM ([1]; planktonic S. aureus, […], read-out: AK-based Prestwick Library Screening Results, S. aureus (increase in extracellular AK activity)): 0.6 | fold induction at 50 µM (K. pneumoniae; planktonic K. pneumoniae, […], read-out: AK-based Prestwick Library Screening Results, K. pneumoniae (increase in extracellular AK activity)): 0.8 | fold induction at 50 µM ([2]; planktonic A. baumannii, […], read-out: AK-based Prestwick Library Screening Results, A. baumannii (increase in extracellular AK activity)): 1 | fold induction at 50 µM (P. aeruginosa; planktonic P. aeruginosa, […], read-out: AK-based Prestwick Library Screening Results, P. aeruginosa (increase in extracellular AK activity)): 0.9 | fold induction at 50 µM (E. cloacae; planktonic E. cloacae, […], read-out: AK-based Prestwick Library Screening Results, E. cloacae (increase in extracellular AK activity)): 0.9 | fold induction at 50 µM (E. coli; planktonic E. coli, […], read-out: AK-based Prestwick Library Screening Results, E. coli (increase in extracellular AK activity)): 0.9

CN1CCc2cc3c(cc2C1O)OCO3 (stereo not drawn) [Hydrastinine hydrochloride]
fold induction at 50 µM (E. faecium; [4]): 0.9 | fold induction at 50 µM [1, 5]: 0.7 | fold induction at 50 µM (K. pneumoniae; [6]): 0.8 | fold induction at 50 µM [2, 7]: 0.9 | fold induction at 50 µM (P. aeruginosa; [8]): 0.9 | fold induction at 50 µM (E. cloacae; [9]): 1.2 | fold induction at 50 µM (E. coli; [10]): 1

NS(=O)(=O)c1cc2c(cc1Cl)NCNS2(=O)=O [Hydrochlorothiazide]
fold induction at 50 µM (E. faecium; [4]): 1.1 | fold induction at 50 µM [1, 5]: 0.5 | fold induction at 50 µM (K. pneumoniae; [6]): 0.6 | fold induction at 50 µM [2, 7]: 0.5 | fold induction at 50 µM (P. aeruginosa; [8]): 0.5 | fold induction at 50 µM (E. cloacae; [9]): 0.4 | fold induction at 50 µM (E. coli; [10]): 0.5

C[C@]12CCC(=O)C=C1CC[C@@H]1[C@@H]2[C@@H](O)C[C@@]2(C)[C@H]1CC[C@]2(O)C(=O)CO [Hydrocortisone base]
AK-based Prestwick Library Screening Results, E. faecium (increase in extracellular AK activity) (E. faecium; planktonic E. faecium, cutoff for positive-scoring molecules 3-fold increase): 1.0 | AK-based Prestwick Library Screening Results, S. aureus (increase in extracellular AK activity) ([1]; planktonic S. aureus, cutoff for positive-scoring molecules 3-fold increase): 1.3 | AK-based Prestwick Library Screening Results, K. pneumoniae (increase in extracellular AK activity) (K. pneumoniae; planktonic K. pneumoniae, cutoff for positive-scoring molecules 3-fold increase): 0.9 | AK-based Prestwick Library Screening Results, A. baumannii (increase in extracellular AK activity) ([2]; planktonic A. baumannii, cutoff for positive-scoring molecules 3-fold increase): 1.3 | AK-based Prestwick Library Screening Results, P. aeruginosa (increase in extracellular AK activity) (P. aeruginosa; planktonic P. aeruginosa, cutoff for positive-scoring molecules 3-fold increase): 1.1 | AK-based Prestwick Library Screening Results, E. cloacae (increase in extracellular AK activity) (E. cloacae; planktonic E. cloacae, cutoff for positive-scoring molecules 3-fold increase): 1.4 | AK-based Prestwick Library Screening Results, E. coli (increase in extracellular AK activity) (E. coli; planktonic E. coli, cutoff for positive-scoring molecules 3-fold increase): 1.1

COc1c2c(cc3c1OCO3)CCN(C)C2 [Hydrocotarnine hydrobromide]
fold induction at 50 µM (E. faecium; planktonic, cutoff for positive 3-fold increase, read-out: AK-based Prestwick Library Screening Results, E. faecium (fold increase in extracellular AK activity)): 1 | fold induction at 50 µM ([1]; planktonic, cutoff for positive 3-fold increase, read-out: AK-based Prestwick Library Screening Results, S. aureus (fold increase in extracellular AK activity)): 1 | fold induction at 50 µM (K. pneumoniae; planktonic, cutoff for positive 3-fold increase, read-out: AK-based Prestwick Library Screening Results, K. pneumoniae (fold increase in extracellular AK activity)): 0.9 | fold induction at 50 µM ([2]; planktonic, cutoff for positive 3-fold increase, read-out: AK-based Prestwick Library Screening Results, A. baumannii (fold increase in extracellular AK activity)): 1.3 | fold induction at 50 µM (P. aeruginosa; planktonic, cutoff for positive 3-fold increase, read-out: AK-based Prestwick Library Screening Results, P. aeruginosa (fold increase in extracellular AK activity)): 1.2 | fold induction at 50 µM (E. cloacae; planktonic, cutoff for positive 3-fold increase, read-out: AK-based Prestwick Library Screening Results, E. cloacae (fold increase in extracellular AK activity)): 1.4 | fold induction at 50 µM (E. coli; planktonic, […], read-out: AK-based Prestwick Library Screening Results, E. coli (fold increase in extracellular AK activity)): 1.2
